Data as given in patent US20260297542A1, “HERBICIDE RESISTANT PLANTS” (SYNGENTA CROP PROTECTION AG, priority 2023, published 2026).
Numbering of substitutions follows the chain as printed. Several values for one entry are separate records, joined by “and”; a condition that tells them apart may be missing. Identical values can stand only once.

Assays:
[1] = biological target: T1, AtPPO1 S305L Y361T V365L T431R L479M (SEQ ID NO.130) (Arabidopsis thaliana, UniProt P55826, L479M/S305L/T431R/V365L/Y361T); assay: fluorescent Protoporphyrinogen Oxidase assay, crude extract; assay type: biochemical; settings: read-out: percentage inhibition
T1 construct: made in house; host or cells: E. coli BL21 (DE3) hemG, crude extract
T1 sequence (P55826 35-537 S305L/Y361T/V365L/T431R/L479M): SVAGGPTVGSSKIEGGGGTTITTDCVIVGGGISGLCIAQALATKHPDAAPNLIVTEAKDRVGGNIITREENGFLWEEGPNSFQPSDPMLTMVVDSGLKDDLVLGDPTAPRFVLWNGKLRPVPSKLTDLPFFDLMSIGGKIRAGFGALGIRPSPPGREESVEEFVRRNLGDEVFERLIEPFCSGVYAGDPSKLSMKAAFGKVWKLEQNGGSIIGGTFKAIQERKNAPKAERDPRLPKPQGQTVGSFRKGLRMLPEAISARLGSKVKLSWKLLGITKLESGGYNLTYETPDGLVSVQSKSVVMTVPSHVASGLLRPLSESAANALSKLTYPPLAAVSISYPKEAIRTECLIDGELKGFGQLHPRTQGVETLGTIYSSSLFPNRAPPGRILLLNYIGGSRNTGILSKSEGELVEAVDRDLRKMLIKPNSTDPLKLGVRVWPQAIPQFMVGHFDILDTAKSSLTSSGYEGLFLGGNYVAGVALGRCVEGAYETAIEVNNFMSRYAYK

[2] = biological target: T2, AtPPO1 S305L Y426V (SEQ ID NO.125) (Arabidopsis thaliana, UniProt P55826, S305L/Y426V); assay: as above; assay type: biochemical; settings: read-out: percentage inhibition
T2 construct: made in house; host or cells: E. coli BL21 (DE3) hemG, crude extract
T2 sequence (P55826 35-537 S305L/Y426V): T1 sequence (P55826 35-537 S305L/Y361T/V365L/T431R/L479M) with T327Y, L331V, Y392V, R397T, M445L

Wildtype Samsun tobacco = assay: herbicide damage to wild-type tobacco; assay type: in vivo; settings: 120 g ai/ha, 0 no visible damage, 100 complete death
Source text: (§1) Herbicidal damage is visually assessed across the population and a herbicide damage score given at 7 and 14 days. A score of 0 indicates no visible damage or stunting whereas a score of 100 indicates a complete death of the plant. 20 transgenic events (i.e. individual transgenic plants) from each GM tobacco line are transplanted to soil 1 week prior to spraying with PPO inhibiting compounds. WT tobacco is included as a control.
as §1, with “damage was” for “damage is”, “line were” for “line are”
The wild-type Samsun plants show significant damage at the day 7 and 14 assessment time.

SMILES	inhibition at 0.1 ppm [1] [%]	inhibition at 1 ppm [1] [%]	inhibition at 10 ppm [1] [%]	inhibition at 100 ppm [1] [%]	inhibition at 0.1 ppm [2] [%]	inhibition at 1 ppm [2] [%]	inhibition at 10 ppm [2] [%]	inhibition at 100 ppm [2] [%]	percentage of damage (Wildtype Samsun tobacco; 7 DAT)	percentage of damage (Wildtype Samsun tobacco; 14 DAT) [%]
CCOC(=O)COc1ncccc1Oc1cc(-n2c(=O)cc(C(F)(F)F)n(C)c2=O)c(F)cc1Cl [Herbicide A, epyrifenacil]	15	69	99	94	0	11	63	87	–	–
C#CCN1C(=O)C(F)(F)Oc2cc(F)c(-n3c(=O)n(C)c(=S)n(C)c3=O)cc21 [Herbicide B, trifludimoxazin]	41	100	97	98	87	99	100	100	100%	100
CCOC(=O)C1(C)CC(c2cc(-n3c(=O)cc(C(F)(F)F)n(C)c3=O)c(F)cc2Cl)=NO1 (stereo not drawn) [Herbicide C, 3-(2-chloro-4-fluoro-5-(3-methyl-2,6-dioxo-4-trifluoromethyl-3,6-dihydropyrimidin-1(2H)-yl)phenyl)-5-methyl-4,5-dihydroisoxazole-5-carboxylic acid ethyl ester]	–	78	99	97	0	31	81	97	100%	100
CCOC(=O)[C@]1(C)CC(c2cc(-n3c(=O)n(C)c(=S)n(C)c3=O)c(F)cc2Cl)=NO1 [Herbicide D, ethyl (5S)-3-[2-chloro-5-(3,5-dimethyl-2,6-dioxo-4-thioxo-1,3,5-triazinan-1-yl)-4-fluoro-phenyl]-5-methyl-4H-isoxazole-5-carboxylate]	12	42	89	92	0	10	53	83	98% and 100%	100
CC(C)N(C)S(=O)(=O)NC(=O)c1cc(-n2c(=O)cc(C(F)(F)F)n(C)c2=O)c(F)cc1Cl [Herbicide E, saflufenacil]	9	45	82	91	0	2	50	84	–	–
